These results are taken from US20230278997A1, “BICYCLO[1.1.1]PENTANE COMPOUNDS FOR THE TREATMENT AND PROPHYLAXIS OF HEPATITIS B VIRUS INFECTION” (Hoffmann-La Roche Inc., priority 2020, published 2023).

By IC50 is commonly meant the point on the concentration scale where inhibition reaches its midpoint.

The test system of one data set is HBsAg. Nature of the data set: microbe, parasite or virus in culture. The format is cell-based, HBV. The following applies: Hepatitis B virus, read-out: HBsAg IC50.
In a further data set the test system is HBeAg. Nature of the data set: microbe, parasite or virus in culture. The settings on record: Hepatitis B virus, read-out: HBeAg IC50. In kind it is cell-based, HBV.
The subject of data set [1] is primary human hepatocyte (PHH). Put plainly: Cytotoxicity in PHH natural infection assay (Cell Counting Kit-8). In kind it is cell-based. The following applies: therapeutic index; CC50 by CCK8 in PHH over HBsAg IC50. As for the experimental part:
Detailed procedures regarding primary human hepatocyte (PHH) HBV natural infection assay are described as below. One tube of frozen PHH (10 million cells) was thawed in 37° C. water bath and then transferred to 20 mL of PHH thawing medium (Sigma, InVitroGRO HT Medium, Cat. 503319) with gently mixing. The cells were then centrifuged at […] for 5 min, the supernatant was discarded and the tube was refilled with 25 mL of PHH plating medium (Sigma, InVitroGRO CP Medium, Cat. 503317). The tube was shaken very gently to re-suspend all cells, and then 50 μl of cells were transferred to each well of a 384-well collagen I coated plate with appropriate liquid handling equipment, e.g. Integra VIAFLO384 or Agilent Bravo. The cells were then cultured for 24 hours in a cell incubator. For HBV infection, after PHH attachment on the culture plate, the plating medium was removed and replenished with PHH culture medium containing HBV virus. The PHH culture medium was prepared with Dulbecco's Modified Eagle Medium (DMEM)/F12 (1:1 in volume ratio) containing 10% fetal bovine serum (Gibco, Cat.10099141), 5 ng/mL human epidermal growth factor (Gibco, Cat.PHG031 IL), 20 ng/mL dexamethasone (Sigma, Cat.D4902-100 mg), 250 ng/mL human recombinant insulin (Gibco, Cat.41400045) and 100 U/mL penicillin. HBV virus at 200 genome equivalent (GE) per cell with 4% PEG8000 (Sigma, Cat.P1458) containing culture medium were added to the PHH culture medium for infection. The cells were then cultured for 24 hours in cell incubator. Then the cell culture supernatant was removed. The HBV-infected PHH were cultured with sandwich culture method with PHH culture medium containing 1% DMSO and 0.25 mg/mL matrix gel for 72 hours. The supernatant was then refreshed with PHH culture medium containing different concentrations of testing compounds for two times with 72-hour interval. At the end of treatment, the supernatant was collected for viral markers measurements, including HBsAg, HBeAg, HBV DNA and cytotoxicity. HBsAg and HBeAg were detected using alphalisa method using their specific antibodies. For HBV DNA detection, HBV DNA Quantitative Fluorescence Diagnostic Kit (Sansure Biotech Inc.) was used following the manufacture's protocol. Cytotoxicity was determined using Cell Counting Kit-8 (CCK8, Dojindo Molecular Technologies, Inc.).
A general note: Formazan colour is commonly taken as a measure of viable cells.

A short description of data set [2]: Human microsome stability assay. In kind it is in vitro ADME. The settings on record: 1 μM compound, 0.5 mg/mL microsomal protein, 37° C.; detection limit 6.15 mL/min/kg. As for the experimental part: Human Microsome Stability Assay The human microsomal stability assay is used for early assessment of metabolic stability of a test compound in human liver microsomes. Human liver microsomes (Cat. […] The reactions were initiated by adding NADPH regenerating system. […] Following precipitation and centrifugation, the amount of compound remaining in the samples were determined by LC-MS/MS. Controls of no NADPH regenerating system at zero and 30 minutes were also prepared and analyzed.

Take `CS(=O)(=O)C1(c2ccc(C(=O)NC34CC(c5csc(-c6ccccc6)n5)(C3)C4)o2)CC1` [Example 26, 5-(1-methylsulfonylcyclopropyl)-N-[3-(2-phenylthiazol-4-yl)-1-bicyclo[1.1.1]pentanyl]furan-2-carboxamide]: the half-inhibitory concentration (IC50) in the data set on HBsAg stood at 0.78 µM; in the data set with HBeAg it was 0.53 µM. For the same compound, the “TI (CC50/IC50 HBsAg)” value in data set [1] was 8.91. The “Clearance of human microsome” value in data set [2] was ≤0.369 L/h/kg.
The corresponding values for `CS(=O)(=O)Cc1nsc(C(=O)NC23CC(c4nc(-c5ccc(Cl)cc5)no4)(C2)C3)n1` [Example 33, N-[3-[3-(4-chlorophenyl)-1,2,4-oxadiazol-5-yl]-1-bicyclo[1.1.1]pentanyl]-3-(methylsulfonylmethyl)-1,2,4-thiadiazole-5-carboxamide] are 0.44 µM, 0.37 µM, >22.73 and ≤0.369 L/h/kg.
The corresponding values for `CS(=O)(=O)C1(c2ccc(C(=O)NC34CC(c5nc(-c6ccccc6)cs5)(C3)C4)o2)CC1` [Example 13, 5-(1-methylsulfonylcyclopropyl)-N-[3-(4-phenylthiazol-2-yl)-1-bicyclo[1.1.1]pentanyl]furan-2-carboxamide] are 0.77 µM, 0.56 µM, 12.38 and ≤0.369 L/h/kg.
The corresponding values for `CS(=O)(=O)C1(c2nsc(C(=O)NC34CC(c5nc(-c6cccc(Cl)c6)cs5)(C3)C4)n2)CC1` [Example 4, N-[3-[4-(3-chlorophenyl)thiazol-2-yl]-1-bicyclo[1.1.1]pentanyl]-3-(1-methylsulfonylcyclopropyl)-1,2,4-thiadiazole-5-carboxamide] are 0.17 µM, 0.12 µM, 29.65 and ≤0.369 L/h/kg.
Turning to `CS(=O)(=O)C1(c2ncc(C(=O)NC34CC(c5nc(-c6ccc(Cl)cc6)cs5)(C3)C4)o2)CC1` [Example 6, N-[3-[4-(4-chlorophenyl)thiazol-2-yl]-1-bicyclo[1.1.1]pentanyl]-2-(1-methylsulfonylcyclopropyl)oxazole-5-carboxamide], the values for the half-inhibitory concentration (IC50) with HBsAg and with HBeAg were 0.08 µM and 0.05 µM, respectively. Moreover, the “TI (CC50/IC50 HBsAg)” value in data set [1] was 81.63. In addition, the “Clearance of human microsome” value in data set [2] was ≤0.369 L/h/kg.
`CS(=O)(=O)C1(c2ccc(C(=O)NC34CC(c5ncc(-c6ccc(Cl)cc6)s5)(C3)C4)o2)CC1` [Example 19, N-[3-[5-(4-chlorophenyl)thiazol-2-yl]-1-bicyclo[1.1.1]pentanyl]-5-(1-methylsulfonylcyclopropyl)furan-2-carboxamide]: the IC50 with HBsAg worked out at 0.21 µM; in the data set with HBeAg, 0.16 µM. In addition, in data set [1], the “TI (CC50/IC50 HBsAg)” value is recorded as >47.62. Besides, the “Clearance of human microsome” value in data set [2] was ≤0.369 L/h/kg.
Consider `CS(=O)(=O)C1(c2ccc(C(=O)NC34CC(c5ncc(-c6ccc(Cl)c(Cl)c6)s5)(C3)C4)o2)CC1` [Example 21, N-[3-[5-(3,4-dichlorophenyl)thiazol-2-yl]-1-bicyclo[1.1.1]pentanyl]-5-(1-methylsulfonylcyclopropyl)furan-2-carboxamide], for which the IC50 in the data set with HBsAg and with HBeAg was 0.07 µM in each case. For the same compound, the “TI (CC50/IC50 HBsAg)” value in data set [1] turned out to be 29.86. Further, the “Clearance of human microsome” value in data set [2] came out at 0.4 L/h/kg.
On to `CS(=O)(=O)C1(c2ccc(C(=O)NC34CC(c5nc(-c6cccc(Cl)c6)cs5)(C3)C4)o2)CC1` [Example 2, N-[3-[4-(3-chlorophenyl)thiazol-2-yl]-1-bicyclo[1.1.1]pentanyl]-5-(1-methylsulfonylcyclopropyl)furan-2-carboxamide], for which the half-inhibitory concentration (IC50) in the data set with HBsAg worked out at 0.35 µM; in the data set with HBeAg, 0.2 µM. Further, in data set [1], the “TI (CC50/IC50 HBsAg)” value worked out at 20.66. In data set [2], the “Clearance of human microsome” value was ≤0.369 L/h/kg.
For `CS(=O)(=O)C1(c2ccc(C(=O)NC34CC(c5nc(-c6ccc(Cl)c(Cl)c6)cs5)(C3)C4)o2)CC1` [Example 8, N-[3-[4-(3,4-dichlorophenyl)thiazol-2-yl]-1-bicyclo[1.1.1]pentanyl]-5-(1-methylsulfonylcyclopropyl)furan-2-carboxamide] the same measures were 0.16 µM, 0.11 µM, 16.69 and ≤0.369 L/h/kg.
For `CS(=O)(=O)C1(c2nsc(C(=O)NC34CC(c5nc(-c6ccc(F)cc6)no5)(C3)C4)n2)CC1` [Example 35, N-[3-[3-(4-fluorophenyl)-1,2,4-oxadiazol-5-yl]-1-bicyclo[1.1.1]pentanyl]-3-(1-methylsulfonylcyclopropyl)-1,2,4-thiadiazole-5-carboxamide], the figures for the 50% inhibitory concentration (IC50) with HBsAg and in the data set with HBeAg were 0.05 µM and 0.04 µM, respectively. For the same compound, the “TI (CC50/IC50 HBsAg)” value in data set [1] came out at 79.80. In data set [2], the “Clearance of human microsome” value is ≤0.369 L/h/kg.
For `CS(=O)(=O)C1(c2ccc(C(=O)NC34CC(c5nc(-c6ccccc6Cl)cs5)(C3)C4)o2)CC1` [Example 3, N-[3-[4-(2-chlorophenyl)thiazol-2-yl]-1-bicyclo[1.1.1]pentanyl]-5-(1-methylsulfonylcyclopropyl)furan-2-carboxamide] the same measures were 0.67 µM, 0.5 µM, 8.85 and ≤0.369 L/h/kg.
As for `CS(=O)(=O)C1(c2ccc(C(=O)NC34CC(c5nc(-c6ccc(Cl)cc6)ns5)(C3)C4)o2)CC1` [Example 18, N-[3-[3-(4-chlorophenyl)-1,2,4-thiadiazol-5-yl]-1-bicyclo[1.1.1]pentanyl]-5-(1-methylsulfonylcyclopropyl)furan-2-carboxamide], the IC50 in the data set with HBsAg turned out to be 0.19 µM; in the data set with HBeAg, 0.12 µM. Further, the “TI (CC50/IC50 HBsAg)” value in data set [1] amounted to 39.05. For the same compound, the “Clearance of human microsome” value in data set [2] turned out to be 0.528 L/h/kg.
For `CS(=O)(=O)C1(c2nsc(C(=O)NC34CC(c5ccn(-c6ccc(Cl)cc6)n5)(C3)C4)n2)CC1` [Example 43, N-[3-[1-(4-chlorophenyl)pyrazol-3-yl]-1-bicyclo[1.1.1]pentanyl]-3-(1-methylsulfonylcyclopropyl)-1,2,4-thiadiazole-5-carboxamide] the same measures were 0.09 µM, 0.08 µM, >111.11 and ≤0.369 L/h/kg.
As for `CS(=O)(=O)C1(c2ccc(C(=O)NC34CC(c5ccnc(-c6ccc(Cl)cc6)n5)(C3)C4)o2)CC1` [Example 47, N-[3-[2-(4-chlorophenyl)pyrimidin-4-yl]-1-bicyclo[1.1.1]pentanyl]-5-(1-methylsulfonylcyclopropyl)furan-2-carboxamide], the IC50 in the data set with HBsAg came out at 0.15 µM; with HBeAg it was 0.14 µM. In addition, in data set [1], the “TI (CC50/IC50 HBsAg)” value is recorded as 59.67. In data set [2], the “Clearance of human microsome” value was ≤0.369 L/h/kg.
The corresponding values for `CS(=O)(=O)C1(c2ccc(C(=O)NC34CC(c5nnn(-c6ccc(Cl)cc6)n5)(C3)C4)o2)CC1` [Example 44, N-[3-[2-(4-chlorophenyl)tetrazol-5-yl]-1-bicyclo[1.1.1]pentanyl]-5-(1-methylsulfonylcyclopropyl)furan-2-carboxamide] are 0.35 µM, 0.27 µM, 12.20 and ≤0.369 L/h/kg.
Turning to `CS(=O)(=O)C1(c2ccc(C(=O)NC34CC(c5csc(-c6ccc(Cl)cc6)n5)(C3)C4)o2)CC1` [Example 27, N-[3-[2-(4-chlorophenyl)thiazol-4-yl]-1-bicyclo[1.1.1]pentanyl]-5-(1-methylsulfonylcyclopropyl)furan-2-carboxamide], the 50% inhibitory concentration (IC50) in the data set on HBsAg is 0.13 µM; in the data set on HBeAg, 0.09 µM. The “TI (CC50/IC50 HBsAg)” value in data set [1] is 39.46. Also, in data set [2], the “Clearance of human microsome” value is ≤0.369 L/h/kg.
